Laboratory results taken from the Kinase Knowledgebase extract (Sharma et al. 2016).
In brackets after ≈: the same amount, converted by molar mass.

How the values were obtained:
EGFR (human) [1] = target: EGFR (human) (UniProt P00533); conditions: mda-mb-435
EGFR (human) [2] = target: EGFR (human) (UniProt P00533); conditions: sw 620
EGFR (human) [3] = target: EGFR (human) (UniProt P00533); conditions: a431
EGFR (human) [4] = target: EGFR (human) (UniProt P00533); conditions: sk-br-3
EGFR (human) [5] = target: EGFR (human) (UniProt P00533); conditions: 3t3
EGFR (human) [6] = target: EGFR (human) (UniProt P00533); conditions: her2/3t3

Sequence of EGFR (human) (P00533 whole entry, looked up): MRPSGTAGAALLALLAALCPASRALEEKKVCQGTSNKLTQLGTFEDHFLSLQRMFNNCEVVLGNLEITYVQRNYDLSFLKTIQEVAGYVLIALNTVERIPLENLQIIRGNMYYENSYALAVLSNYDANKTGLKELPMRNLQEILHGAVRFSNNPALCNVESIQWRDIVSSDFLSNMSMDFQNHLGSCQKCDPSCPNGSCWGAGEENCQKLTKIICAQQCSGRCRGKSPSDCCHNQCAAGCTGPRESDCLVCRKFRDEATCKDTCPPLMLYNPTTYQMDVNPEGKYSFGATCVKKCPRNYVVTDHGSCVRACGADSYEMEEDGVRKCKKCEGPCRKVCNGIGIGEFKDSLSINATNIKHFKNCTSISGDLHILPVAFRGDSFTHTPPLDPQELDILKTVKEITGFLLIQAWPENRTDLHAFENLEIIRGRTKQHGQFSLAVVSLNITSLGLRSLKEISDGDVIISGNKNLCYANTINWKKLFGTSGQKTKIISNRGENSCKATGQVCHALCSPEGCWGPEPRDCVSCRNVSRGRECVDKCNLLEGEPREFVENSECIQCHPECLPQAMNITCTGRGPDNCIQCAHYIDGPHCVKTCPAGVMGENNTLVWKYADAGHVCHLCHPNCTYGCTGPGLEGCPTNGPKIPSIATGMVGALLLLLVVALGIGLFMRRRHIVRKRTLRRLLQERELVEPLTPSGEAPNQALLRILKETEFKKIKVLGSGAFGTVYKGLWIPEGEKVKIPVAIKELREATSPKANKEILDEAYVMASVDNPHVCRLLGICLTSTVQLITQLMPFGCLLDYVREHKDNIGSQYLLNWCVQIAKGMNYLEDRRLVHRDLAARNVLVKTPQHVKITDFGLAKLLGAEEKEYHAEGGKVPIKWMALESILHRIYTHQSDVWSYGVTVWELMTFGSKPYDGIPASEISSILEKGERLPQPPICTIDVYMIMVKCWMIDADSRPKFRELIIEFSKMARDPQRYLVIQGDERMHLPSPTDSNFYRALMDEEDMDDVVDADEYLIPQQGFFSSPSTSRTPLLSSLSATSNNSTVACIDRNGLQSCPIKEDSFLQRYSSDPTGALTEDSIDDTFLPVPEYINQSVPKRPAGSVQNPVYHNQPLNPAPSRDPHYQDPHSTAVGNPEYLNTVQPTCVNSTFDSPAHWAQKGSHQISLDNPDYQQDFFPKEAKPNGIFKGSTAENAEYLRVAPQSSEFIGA

IC50 (EGFR (human) [1]) | IC50 (EGFR (human) [2]) | IC50 (EGFR (human) [3]) | IC50 (EGFR (human) [4]) | IC50 (EGFR (human) [5]) | IC50 (EGFR (human) [6]) | SMILES
2.07 µg/mL (≈ 4.16 µM) | 1.53 µg/mL (≈ 3.07 µM) | 0.245 µg/mL (≈ 0.492 µM) | 0.107 µg/mL (≈ 0.215 µM) | 2.04 µg/mL (≈ 4.1 µM) | 0.192 µg/mL (≈ 0.386 µM) | COCCN(C)C/C=C\C(=O)Nc1cc2c(Nc3ccc(F)c(Cl)c3)c(C#N)cnc2cc1OC
27.6 µg/mL (≈ 59.6 µM) | 18 µg/mL (≈ 38.8 µM) | 4.91 µg/mL (≈ 10.6 µM) | 1.74 µg/mL (≈ 3.76 µM) | – | – | CCOc1c(Nc2ccc3ncc(C#N)c(Nc4cccc(Br)c4)c3c2)c(=O)c1=O
0.1 µg/mL (≈ 0.211 µM) | 0.1 µg/mL (≈ 0.211 µM) | – | – | – | – | C=CCN(C)CC#CC(=O)Nc1ccc2ncc(C#N)c(Nc3cccc(Br)c3)c2c1
0.2 µg/mL (≈ 0.373 µM) | 0.5 µg/mL (≈ 0.932 µM) | 0.1 µg/mL (≈ 0.186 µM) | – | – | – | COCCN(CC#CC(=O)Nc1ccc2ncc(C#N)c(Nc3cccc(Br)c3)c2c1)CCOC
3.5 µg/mL (≈ 7.3 µM) | 0.4 µg/mL (≈ 0.834 µM) | 0.9 µg/mL (≈ 1.88 µM) | 0.8 µg/mL (≈ 1.67 µM) | – | – | COCCOCC#CC(=O)Nc1ccc2ncc(C#N)c(Nc3cccc(Br)c3)c2c1
0.284 µg/mL (≈ 0.577 µM) | 0.239 µg/mL (≈ 0.485 µM) | 0.05 µg/mL (≈ 0.102 µM) | – | – | – | COCCN(C)CC#CC(=O)Nc1ccc2ncc(C#N)c(Nc3cccc(Br)c3)c2c1
1.74 µg/mL (≈ 3.32 µM) | 1.24 µg/mL (≈ 2.37 µM) | 0.234 µg/mL (≈ 0.447 µM) | 0.148 µg/mL (≈ 0.282 µM) | 2.1 µg/mL (≈ 4.01 µM) | 0.329 µg/mL (≈ 0.628 µM) | COC[C@@H]1CCCN1C/C=C/C(=O)Nc1cc2c(Nc3ccc(F)c(Cl)c3)c(C#N)cnc2cc1OC
1.83 µg/mL (≈ 3.49 µM) | 1.73 µg/mL (≈ 3.3 µM) | 0.232 µg/mL (≈ 0.443 µM) | – | 2.87 µg/mL (≈ 5.48 µM) | 0.375 µg/mL (≈ 0.716 µM) | COc1cc2ncc(C#N)c(Nc3ccc(F)c(Cl)c3)c2cc1NC(=O)/C=C\CN1CCCC(CO)C1 (stereo not given)
3.32 µg/mL (≈ 6.01 µM) | 2.51 µg/mL (≈ 4.55 µM) | 0.283 µg/mL (≈ 0.513 µM) | 0.188 µg/mL (≈ 0.341 µM) | 2.79 µg/mL (≈ 5.05 µM) | 0.35 µg/mL (≈ 0.634 µM) | COc1cc2ncc(C#N)c(Nc3ccc(F)c(Cl)c3)c2cc1NC(=O)/C=C/CN1CCC2(CC1)OCCO2
0.3 µg/mL (≈ 0.579 µM) | 0.1 µg/mL (≈ 0.193 µM) | – | – | – | – | COC[C@@H]1CCCN1CC#CC(=O)Nc1ccc2ncc(C#N)c(Nc3cccc(Br)c3)c2c1
3.19 µg/mL (≈ 6.91 µM) | > 5 µg/mL | 0.369 µg/mL (≈ 0.798 µM) | 1.5 µg/mL (≈ 3.23 µM) | – | – | CN1CCC=C(C(=O)Nc2ccc3ncc(C#N)c(Nc4cccc(Br)c4)c3c2)C1
